According to BigSolDB 2.1:

Nc1ccc(Cc2ccc(N)c(Cl)c2)cc1Cl
solubility (mole fraction)
Conditions | 283.15 K | 288.15 K | 293.15 K | 298.15 K | 303.15 K | 308.15 K | 313.15 K | 318.15 K | 323.15 K | 328.15 K
in 1,4-dioxane | – | 0.206 | 0.217 | 0.236 | 0.258 | 0.285 | 0.32 | 0.354 | 0.394 | 0.443
in DMAc | 0.339 | 0.348 | 0.366 | 0.384 | 0.41 | 0.436 | 0.466 | 0.502 | 0.548 | 0.587
in DMF | 0.306 | 0.316 | 0.33 | 0.347 | 0.373 | 0.396 | 0.425 | 0.462 | 0.502 | 0.545
in acetonitrile | 0.0208 | 0.0225 | 0.0251 | 0.0283 | 0.0323 | 0.0367 | 0.0419 | 0.048 | 0.0574 | 0.0671
in ethanol | 0.0223 | 0.0242 | 0.0272 | 0.0314 | 0.0362 | 0.0424 | 0.049 | 0.057 | 0.0677 | 0.0803
in ethyl acetate | 0.115 | 0.123 | 0.134 | 0.146 | 0.162 | 0.177 | 0.196 | 0.223 | 0.254 | 0.287
in ethylene glycol | 0.0057 | 0.00624 | 0.00816 | 0.00975 | 0.0123 | 0.0148 | 0.0181 | 0.0208 | 0.0239 | 0.0281
in isobutanol | 0.0136 | 0.015 | 0.0172 | 0.0197 | 0.0227 | 0.0259 | 0.0301 | 0.0357 | 0.0426 | 0.0513
in isopropanol | 0.0189 | 0.0203 | 0.0226 | 0.0261 | 0.0294 | 0.0336 | 0.039 | 0.0447 | 0.0532 | 0.0623
in methanol | 0.0163 | 0.018 | 0.02 | 0.0231 | 0.026 | 0.0297 | 0.0347 | 0.0405 | 0.048 | 0.0565
in n-butanol | 0.0298 | 0.0323 | 0.037 | 0.0425 | 0.0484 | 0.0551 | 0.0632 | 0.0737 | 0.0873 | 0.105
in n-propanol | 0.0257 | 0.0278 | 0.0322 | 0.0369 | 0.0422 | 0.0484 | 0.0562 | 0.066 | 0.0783 | 0.094
in water | 0.00014 | 0.000172 | 0.000228 | 0.000286 | 0.000342 | 0.000409 | 0.000475 | 0.000559 | 0.000684 | 0.000842
